Laboratory results from EP0510036B1, “2-SUBSTITUTED 4,5-DIPHENYL-IMIDAZOLES” (RHONE-POULENC RORER S.A., priority 1990, dated 1991).

Tests used:
[1] = tested on: acyl coenzyme-A:cholesterol-O-acyl transferase (ACAT; EC 2.3.1.26); assay: ACAT inhibition in rat liver microsomes incubated with radiolabelled oleoyl-CoA; assay type: biochemical; settings: liver microsomes of rats fed 0.5%w/w cholesterol and 0.25%w/w cholic acid for 7 days; for In-vitro % Inhibition at 1»g/ml: compound at 1»g/ml; for In-vitro % Inhibition at 0.5»g/ml: compound at 0.5»g/ml
Experimental: In assays performed in-vitro, microsomes, obtained from the livers of rats fed on a diet supplemented with 0.5%w/w cholesterol and 0.25%w/w cholic acid for 7 days, were incubated with radiolabelled oleoyl-CoA in the presence of compounds according to the invention at a concentration of 0.5 or 1 »g/ml.

[2] = tested on: plasma cholesterol concentrations; assay: Inhibition of increases in plasma cholesterol in cholesterol-fed rats; assay type: in vivo; settings: diet supplemented by 0.03% w/w of test compound, measured after 3 days, relative to control animals

| SMILES | In-vitro % Inhibition at 1»g/ml [1] [%] | In-vitro % Inhibition at 0.5»g/ml [1] [%] | In-vivo % Inhibition [2] [%] |
| --- | --- | --- | --- |
| CC(Sc1nc(-c2ccccc2)c(-c2ccccc2)[nH]1)n1ccnc1 (racemic) [Compound 1I, (±)-2-[1-(imidazol-1-yl)ethylthio]-4,5-diphenylimidazole] | 53 | – | – |
| Cc1nccn1CCCSc1nc(-c2ccccc2)c(-c2ccccc2)[nH]1 [Compound 1A, 2-[3-(2-methylimidazol-1-yl)propylthio]-4,5-diphenylimidazole] | 90 | – | 64 |
| c1ccc(-c2nc(SCCn3ccnc3)[nH]c2-c2ccccc2)cc1 [Compound 1G] | 86 | – | – |
| Cn1ccnc1CSc1nc(-c2ccccc2)c(-c2ccccc2)[nH]1 [Compound 1J, 2-[(1-methylimidazol-2-yl)methylthio]-4,5-diphenylimidazole] | 85 | – | – |
| Cl.Cn1ccnc1CSc1nc(-c2ccccc2)c(-c2ccccc2)[nH]1 [Compound 1JA, 2-[(1-methylimidazol-2-yl)methylthio]-4,5-diphenylimidazole hydrochloride] | 82 | – | 23 |
| c1ccc(Cn2ccnc2CSc2nc(-c3ccccc3)c(-c3ccccc3)[nH]2)cc1 [Compound 1K, 2-[(1-benzylimidazol-2-yl)methylthio]-4,5-diphenylimidazole] | 57 | – | – |
| c1ccc(-c2nc(SCCCCCCn3cncn3)[nH]c2-c2ccccc2)cc1 [Compound 1L, 2-[6-(1,2,4-triazol-1-yl)hexylthio]-4,5-diphenylimidazole] | 91 | – | – |
| Cc1nccn1CCCCSc1nc(-c2ccccc2)c(-c2ccccc2)[nH]1 [Compound 1M, 2-[4-(2-methylimidazol-1-yl)butylthio]-4,5-diphenylimidazole] | – | 87 | 26 |
| c1ccc(-c2nc(SCCCn3ccnc3-c3ccccc3)[nH]c2-c2ccccc2)cc1 [Compound 1N, 2-[3-(2-phenylimidazol-1-yl)propylthio]-4,5-diphenylimidazole] | – | 57 | – |
| Cc1ncc([N+](=O)[O-])n1CCSc1nc(-c2ccccc2)c(-c2ccccc2)[nH]1 [Compound 1O, 2-[2-(2-methyl-5-nitroimidazol-1-yl)ethylthio]-4,5-diphenylimidazole] | – | 82 | – |
| Cc1cc(C)n(CCCSc2nc(-c3ccccc3)c(-c3ccccc3)[nH]2)n1 [Compound 1P, 2-[3-(3,5-dimethylpyrazol-1-yl)propylthio]-4,5-diphenylimidazole] | – | 87 | – |
| c1ccc(-c2nc(SCc3ccncc3)[nH]c2-c2ccccc2)cc1 [Compound 1U, 2-[pyrid-4-ylmethylthio]-4,5-diphenylimidazole] | 71 | – | – |

Further lines, with some results ahead:

| In-vitro % Inhibition at 1»g/ml [1] [%] | In-vitro % Inhibition at 0.5»g/ml [1] [%] | SMILES | In-vivo % Inhibition [2] [%] |
| --- | --- | --- | --- |
| 83 | – | c1ccc(-c2nc(SCCCn3cccn3)[nH]c2-c2ccccc2)cc1 [Compound 1B, 2-[3-(pyrazol-1-yl)propylthio]-4,5-diphenylimidazole] | – |
| 88 | – | c1ccc(-c2nc(SCCn3cncn3)[nH]c2-c2ccccc2)cc1 [Compound 1C, 2-[2-(1,2,4-triazol-1-yl)ethylthio]-4,5-diphenylimidazole] | – |
| 84 | – | c1ccc(-c2nc(SCCCn3cncn3)[nH]c2-c2ccccc2)cc1 [Compound 1D, 2-[3-(1,2,4-triazol-1-yl)propylthio]-4,5-diphenylimidazole] | – |
| 86 | – | c1ccc(-c2nc(SCCCCn3cncn3)[nH]c2-c2ccccc2)cc1 [Compound 1E, 2-[4-(1,2,4-triazol-1-yl)butylthio]-4,5-diphenylimidazole] | 53 |
| 92 | – | c1ccc(-c2nc(SCCCCCn3cncn3)[nH]c2-c2ccccc2)cc1 [Compound 1F, 2-[5-(1,2,4-triazol-1-yl)pentylthio]-4,5-diphenylimidazole] | 74 |
| 80 | – | c1ccc(-c2nc(SCCCn3ccnc3)[nH]c2-c2ccccc2)cc1 [Compound 1H, 2-[3-(imidazol-1-yl)propylthio]-4,5-diphenylimidazole] | – |
| 88 | – | c1ccc(-c2nc(SCCCn3cnnn3)[nH]c2-c2ccccc2)cc1 [Compound 1Q, 2-[3-(tetrazol-1-yl)propylthio]-4,5-diphenylimidazole] | – |
| 80 | – | c1ccc(-c2nc(SCCCn3ncnn3)[nH]c2-c2ccccc2)cc1 [Compound 1R, 2-[3-(tetrazol-2-yl)propylthio]-4,5-diphenylimidazole] | – |
| – | 84 | c1ccc(-c2nc(SCCCCn3cnnn3)[nH]c2-c2ccccc2)cc1 [Compound 1S, 2-[4-(tetrazol-1-yl)butylthio]-4,5-diphenylimidazole] | 41 |
| – | 74 | c1ccc(-c2nc(SCCCCn3ncnn3)[nH]c2-c2ccccc2)cc1 [Compound 1T, 2-[4-(tetrazol-2-yl)butylthio]-4,5-diphenylimidazole] | – |
